Assay results as given in article PMC9395446, “First-in-human phase 1/1b study to evaluate sitravatinib in patients with advanced solid tumors” (Investigational New Drugs, 2022).

Assay: Safety in phase 1/1b study (DLTs, TRAEs, TEAEs; CTCAE v4.03)
Format: in vivo, human
Source text: Safety assessments included evaluation of DLTs, AEs, physical examinations, vital sign measurements, electrocardiogram recordings and laboratory tests.
A DLT was defined as a grade ≥ 4 hematologic abnormality lasting ≥ 4 days; grade 3 thrombocytopenia with clinically significant bleeding; febrile neutropenia; clinically significant grade ≥ 3 non-hematologic AEs not related to underlying malignancy; intolerable grade 2 AEs; or toxicity resulting in an inability to deliver 80% of the dose during the first treatment cycle.
The safety population included all patients who received ≥ 1 dose of sitravatinib. […] The PK evaluable population included all patients with sufficient concentration-time data for PK parameter evaluation. The modified intent-to-treat (mITT) population included all phase 1b patients who received ≥ 1 dose of study drug.

[1] = safety population (N = 193), any grade

SMILES: COCCNCc1ccc(-c2cc3nccc(Oc4ccc(NC(=O)C5(C(=O)Nc6ccc(F)cc6)CC5)cc4F)c3s2)nc1 [sitravatinib, Sitravatinib]
- Abdominal pain TRAE, any grade (Phase 1): 0 n (%)
- Abdominal pain TRAE, grade ≥3 (Phase 1): 0 n (%)
- Anemia TEAE, any grade (Phase 1): 5 (15.6) n (%)
- Anemia TEAE, grade ≥3 (Phase 1): 1 (3.1) n (%)
- Any TEAE (Phase 1): 31 (96.9) n (%)
- Any TRAE (Phase 1): 24 (75.0) n (%)
- Asthenia TEAE, any grade (Phase 1): 4 (12.5) n (%)
- Asthenia TEAE, grade ≥3 (Phase 1): 0 n (%)
- Back pain TEAE, any grade (Phase 1): 8 (25.0) n (%)
- Blood and lymphatic system disorders TEAE, any grade (Phase 1): 7 (21.9) n (%)
- Blood and lymphatic system disorders TEAE, grade ≥3 (Phase 1): 2 (6.3) n (%)
- Blood creatinine increased TEAE, any grade (Phase 1): 3 (9.4) n (%)
- Blood creatinine increased TEAE, grade ≥3 (Phase 1): 0 n (%)
- Cardiac disorders TEAE, any grade (Phase 1): 3 (9.4) n (%)
- Cardiac disorders TEAE, grade ≥3 (Phase 1): 2 (6.3) n (%)
- Constipation TEAE, any grade (Phase 1): 5 (15.6) n (%)
- Constipation TEAE, grade ≥3 (Phase 1): 0 n (%)
- Constipation TRAE, any grade (Phase 1): 2 (6.3) n (%)
- Constipation TRAE, grade ≥3 (Phase 1): 0 n (%)
- Cough TEAE, any grade (Phase 1): 12 (37.5) n (%)
- Cough TEAE, grade ≥3 (Phase 1): 0 n (%)
- Decreased appetite TEAE, any grade (Phase 1): 15 (46.9) n (%)
- Decreased appetite TEAE, grade ≥3 (Phase 1): 1 (3.1) n (%)
- Decreased appetite TRAE, any grade (Phase 1): 7 (21.9) n (%)
- Decreased appetite TRAE, grade ≥3 (Phase 1): 0 n (%)
- Dehydration TEAE, any grade (Phase 1): 5 (15.6) n (%)
- Dehydration TEAE, grade ≥3 (Phase 1): 1 (3.1) n (%)
- Diarrhea TEAE, any grade (Phase 1): 13 (40.6) n (%)
- Diarrhea TEAE, grade ≥3 (Phase 1): 3 (9.4) n (%)
- Diarrhea TRAE, any grade (Phase 1): 8 (25.0) n (%)
- Diarrhea TRAE, grade ≥3 (Phase 1): 2 (6.3) n (%)
- Dizziness TEAE, any grade (Phase 1): 5 (15.6) n (%)
- Dizziness TRAE, any grade (Phase 1): 2 (6.3) n (%)
- Dizziness TRAE, grade ≥3 (Phase 1): 0 n (%)
- Dry mouth TEAE, any grade (Phase 1): 6 (18.8) n (%)
- Dry mouth TEAE, grade ≥3 (Phase 1): 0 n (%)
- Dry mouth TRAE, any grade (Phase 1): 4 (12.5) n (%)
- Dry mouth TRAE, grade ≥3 (Phase 1): 0 n (%)
- Dysphonia TEAE, any grade (Phase 1): 5 (15.6) n (%)
- Dysphonia TEAE, grade ≥3 (Phase 1): 0 n (%)
- Dysphonia TRAE, any grade (Phase 1): 2 (6.3) n (%)
- Dysphonia TRAE, grade ≥3 (Phase 1): 0 n (%)
- Dyspnea TEAE, any grade (Phase 1): 7 (21.9) n (%)
- Dyspnea TEAE, grade ≥3 (Phase 1): 3 (9.4) n (%)
- Edema peripheral TEAE, any grade (Phase 1): 7 (21.9) n (%)
- Edema peripheral TEAE, grade ≥3 (Phase 1): 1 (3.1) n (%)
- Endocrine disorders TEAE, any grade (Phase 1): 6 (18.8) 6 (18.8) n (%)
- Fatigue TEAE, any grade (Phase 1): 17 (53.1) n (%)
- Fatigue TEAE, grade ≥3 (Phase 1): 3 (9.4) n (%)
- Fatigue TRAE, any grade (Phase 1): 13 (40.6) n (%)
- Fatigue TRAE, grade ≥3 (Phase 1): 1 (3.1) n (%)
- Gastrointestinal disorders TEAE, any grade (Phase 1): 25 (78.1) n (%)
- Gastrointestinal disorders TEAE, grade ≥3 (Phase 1): 4 (12.5) n (%)
- General disorders and administration site conditions TEAE, any grade (Phase 1): 21 (65.6) n (%)
- General disorders and administration site conditions TEAE, grade ≥3 (Phase 1): 3 (9.4) n (%)
- Headache TEAE, any grade (Phase 1): 9 (28.1) n (%)
- Hypertension TEAE, any grade (Phase 1): 11 (34.4) n (%)
- Hypertension TEAE, grade ≥3 (Phase 1): 6 (18.8) 6 (18.8) n (%)
- Hypertension TRAE, any grade (Phase 1): 8 (25.0) n (%)
- Hypertension TRAE, grade ≥3 (Phase 1): 5 (15.6) n (%)
- Hypokalemia TEAE, any grade (Phase 1): 3 (9.4) n (%)
- Hypokalemia TEAE, grade ≥3 (Phase 1): 0 n (%)
- Hypomagnesemia TEAE, any grade (Phase 1): 3 (9.4) n (%)
- Hypomagnesemia TEAE, grade ≥3 (Phase 1): 0 n (%)
- Hyponatremia TEAE, any grade (Phase 1): 3 (9.4) n (%)
- Hyponatremia TEAE, grade ≥3 (Phase 1): 3 (9.4) n (%)
- Hypophosphatemia TEAE, any grade (Phase 1): 2 (6.3) n (%)
- Hypophosphatemia TEAE, grade ≥3 (Phase 1): 1 (3.1) n (%)
- Hypothyroidism TEAE, any grade (Phase 1): 6 (18.8) 6 (18.8) n (%)
- Hypothyroidism TRAE, any grade (Phase 1): 3 (9.4) n (%)
- Hypothyroidism TRAE, grade ≥3 (Phase 1): 0 n (%)
- Infections and infestations TEAE, any grade (Phase 1): 16 (50.0) n (%)
- Infections and infestations TEAE, grade ≥3 (Phase 1): 5 (15.6) n (%)
- Injury, poisoning, procedural complications TEAE, any grade (Phase 1): 4 (12.5) n (%)
- Injury, poisoning, procedural complications TEAE, grade ≥3 (Phase 1): 0 n (%)
- Investigations TEAE, any grade (Phase 1): 16 (50.0) n (%)
- Investigations TEAE, grade ≥3 (Phase 1): 6 (18.8) n (%)
- Lipase increased TEAE, any grade (Phase 1): 3 (9.4) n (%)
- Lipase increased TEAE, grade ≥3 (Phase 1): 1 (3.1) n (%)
- Metabolism and nutrition disorders TEAE, any grade (Phase 1): 21 (65.6) n (%)
- Metabolism and nutrition disorders TEAE, grade ≥3 (Phase 1): 4 (12.5) n (%)
- Musculoskeletal and connective tissue disorders TEAE, any grade (Phase 1): 19 (59.4) n (%)
- Nausea TEAE, any grade (Phase 1): 13 (40.6) n (%)
- Nausea TEAE, grade ≥3 (Phase 1): 1 (3.1) n (%)
- Nausea TRAE, any grade (Phase 1): 6 (18.8) n (%)
- Nausea TRAE, grade ≥3 (Phase 1): 0 n (%)
- Neoplasms benign, malignant, unspecified TEAE, any grade (Phase 1): 3 (9.4) n (%)
- Neoplasms benign, malignant, unspecified TEAE, grade ≥3 (Phase 1): 3 (9.4) n (%)
- Nervous system disorders TEAE, any grade (Phase 1): 14 (43.8) n (%)
- PPE syndrome TEAE, any grade (Phase 1): 4 (12.5) n (%)
- PPE syndrome TEAE, grade ≥3 (Phase 1): 1 (3.1) n (%)
- PPE syndrome TRAE, any grade (Phase 1): 4 (12.5) n (%)
- PPE syndrome TRAE, grade ≥3 (Phase 1): 1 (3.1) n (%)
- Pain in extremity TEAE, any grade (Phase 1): 2 (6.3) n (%)
- Proteinuria TEAE, any grade (Phase 1): 2 (6.3) n (%)
- Proteinuria TRAE, any grade (Phase 1): 2 (6.3) n (%)
- Proteinuria TRAE, grade ≥3 (Phase 1): 0 n (%)
- Psychiatric disorders TEAE, any grade (Phase 1): 7 (21.9) n (%)
- Psychiatric disorders TEAE, grade ≥3 (Phase 1): 1 (3.1) n (%)
- Rash TEAE, any grade (Phase 1): 5 (15.6) n (%)
- Rash TEAE, grade ≥3 (Phase 1): 0 n (%)
- Rash TRAE, any grade (Phase 1): 4 (12.5) n (%)
- Rash TRAE, grade ≥3 (Phase 1): 0 n (%)
- Renal and urinary disorders TEAE, any grade (Phase 1): 9 (28.1) n (%)
- Respiratory, thoracic and mediastinal disorders TEAE, any grade (Phase 1): 22 (68.8) n (%)
- Respiratory, thoracic and mediastinal disorders TEAE, grade ≥3 (Phase 1): 4 (12.5) n (%)
- Serious TEAE (Phase 1): 9 (28.1) n (%)
- Serious TRAE (Phase 1): 3 (9.4) n (%)
- Skin and subcutaneous tissue disorders TEAE, any grade (Phase 1): 21 (65.6) n (%)
- Skin and subcutaneous tissue disorders TEAE, grade ≥3 (Phase 1): 1 (3.1) n (%)
- Stomatitis TEAE, any grade (Phase 1): 4 (12.5) n (%)
- Stomatitis TEAE, grade ≥3 (Phase 1): 0 n (%)
- Stomatitis TRAE, any grade (Phase 1): 3 (9.4) n (%)
- Stomatitis TRAE, grade ≥3 (Phase 1): 0 n (%)
- TEAE grade ≥3 (Phase 1): 20 (62.5) n (%)
- TEAE leading to death (Phase 1): 3 (9.4) n (%)
- TEAE leading to discontinuation (Phase 1): 5 (15.6) n (%)
- TEAE leading to treatment modification (Phase 1): 13 (40.6) n (%)
- TRAE grade ≥3 (Phase 1): 10 (31.3) n (%)
- TRAE leading to death (Phase 1): 0 n (%)
- TRAE leading to discontinuation (Phase 1): 2 (6.3) n (%)
- TRAE leading to treatment modification (Phase 1): 12 (37.5) n (%)
- UTI TEAE, any grade (Phase 1): 3 (9.4) n (%)
- UTI TEAE, grade ≥3 (Phase 1): 2 (6.3) n (%)
- Vascular disorders TEAE, any grade (Phase 1): 13 (40.6) n (%)
- Vascular disorders TEAE, grade ≥3 (Phase 1): 6 (18.8) 6 (18.8) n (%)
- Vomiting TEAE, any grade (Phase 1): 11 (34.4) n (%)
- Vomiting TEAE, grade ≥3 (Phase 1): 1 (3.1) n (%)
- Vomiting TRAE, any grade (Phase 1): 6 (18.8) n (%)
- Vomiting TRAE, grade ≥3 (Phase 1): 0 n (%)
- Weight decreased TEAE, any grade (Phase 1): 4 (12.5) n (%)
- Weight decreased TEAE, grade ≥3 (Phase 1): 0 n (%)
- Weight decreased TRAE, any grade (Phase 1): 2 (6.3) n (%)
- Weight decreased TRAE, grade ≥3 (Phase 1): 0 n (%)
- Recommended dose for further exploration (QD, defined in phase 1b due to tolerability): 120 mg
- Maximum tolerated dose (MTD) (daily (QD), phase 1 dose escalation, mTPI method): 150 mg
- TRAE leading to death (cardiac arrest) (overall population): 0.5%
- Patients with DLT (phase 1, 80 mg): one
- Patients with DLT (phase 1, 200 mg): three
- DLT-evaluable phase 1 patients with a DLT (phase 1, 10–200 mg): 14.3%
- DLT-evaluable phase 1 patients with a DLT (n/N) (phase 1, 10–200 mg): 4/28
- Each reported DLT (fatigue, mucosal inflammation, peripheral sensory neuropathy, PPE syndrome), share of phase 1 population (phase 1, n = 1 each): 3.6%
- Discontinuation due to diarrhea, nausea and fatigue (each) (safety population (N = 193)): 2.1%
- Grade ≥ 3 TRAE diarrhea (safety population (N = 193)): 10.4%
- Grade ≥ 3 TRAE fatigue (safety population (N = 193)): 7.3%
- Grade ≥ 3 TRAE hypertension (safety population (N = 193)): 20.7%
- Patients discontinued due to TRAEs (safety population (N = 193)): 13.5%
- Patients with any TRAE (safety population (N = 193)): 90.2%
- Patients with grade ≥ 3 TRAEs (safety population (N = 193)): 53.4%
- TRAEs leading to treatment modification (dose reduction or interruption) (safety population (N = 193)): 62.2%
- Treatment modification due to PPE syndrome (safety population (N = 193)): 11.9%
- Treatment modification due to diarrhea (safety population (N = 193)): 17.6%
- Treatment modification due to fatigue (safety population (N = 193)): 15.0%
- Treatment modification due to hypertension (safety population (N = 193)): 15.0%
- TRAE diarrhea [1]: 50.8%
- TRAE fatigue [1]: 43.0%
- TRAE hypertension [1]: 40.4%
- TRAE nausea [1]: 30.1%
